Laboratory results from US20040219103A1, “Methods useful for the diagnosis, imaging and treatment of tumors” (priority 2003, published 2004).

Key:
JJ5 breast cancer cells [1] = assay: Growth inhibition assay against JJ5 breast cancer cells; assay type: cell-based, human; settings: 4 days culture
Protocol: Growth medium was added and the cells were cultured at 37° C./5% CO^2 for 4 days. The cells were then recovered by trypsinization and counted in a hemocytometer. Control dishes contained cells cultured in growth medium containing ^111In-DTPA or growth medium alone.

JJ5 breast cancer cells [2] = assay: Cytotoxicity (colony-forming) assay against JJ5 breast cancer cells; assay type: cell-based, human; settings: 14 days
Protocol: The number of cells seeded was varied from 3×10^4 to 3×10^6 cells to obtain approximately 400 viable colonies/dish taking into account the plating efficiency and the expected level of cytotoxicity. Control dishes contained JJ5 breast cancer cells which were incubated with normal saline. Growth medium was added and the cells were cultured at 37° C./5% CO^2 for 14 days. The growth medium was removed and the colonies were stained with methylene blue (1% in a 1:1 mixture of ethanol and water) then washed twice. The number of colonies per dish was counted using a manual colony counter (Manostat Corp). The plating efficiency was calculated by dividing the number of colonies observed by the number of cells seeded in each dish.

[3] = system: JJ5 Breast Cancer cells (EGFR); assay: Binding of EGF-^111In-labeled transferrin compound to breast cancer cells (radioligand binding, kinetics, retention); set-up: species or system human
Protocol: For the normal breast cell line HBL-100, 8000 EGFR/cell has been reported. The expression of EGFR in breast cancer cell lines has a reported range of 800 EGFR/cell for MCF-7 cells to 10^6 EGFR/cell for MDA-MB-468 cells. […] Utilizing the Auger electron emitter ^111In was used in the initial experiments to illustrate the utility of the invention using EGF-^111In-labeled transferrin compounds. The EGF-^111In-labeled transferrin (0.25-80 ng) was incubated with 1.5×10^6 cells/dish JJ5 Breast Cancer (prepared from BCBM JJ5) cells in 1 mL of 0.1% human serum albumin in 35 mm multiwell culture dishes at 37° C. for 30 minutes. The cells were transferred to a centrifuge tube and centrifuged. The cell pellet was separated from the supernatant and counted in a g-scintillation counter to determine bound (B) and free (F) radioactivity. Non-specific binding was determined by conducting the assay in 100 nM hEGF. […] Internalized fraction was measured by determining the proportion of radioactivity which could not be displaced from the cell surface by 100 nM hEGF. Cell-associated binding (surface-binding and intracellular accumulation) was expressed as a percentage of medium radioactivity bound per mg of cell study protein.

Compound	growth inhibition of the JJ5 cells compared to the medium control (JJ5 breast cancer cells [1]; 3.5 pCi/cell) [%]	cell killing (JJ5 breast cancer cells [2]; <6 pCi/cell)	internalization by cancer cells (in words) ([3]; JJ5 cells)	number of binding sites ([3]; JJ5 cells)	binding by the breast cancer cells (kinetics, in words) ([3]; JJ5 cells, 37° C.)	time retained by the breast cancer cells ([3]; JJ5 cells, 37° C.)	affinity constant for binding to JJ5 cells ([3]; JJ5 cells, 37° C., 30 minutes) [L/mol]	^111In radioactivity lost from the cells in vitro ([3]; over a 24 hour period at 37° C.) [%]	growth inhibition of the JJ5 cells compared to the medium control (JJ5 breast cancer cells [1]; 3.4 pCi/cell) [%]	reduction in cell survival for JJ5 cells (JJ5 breast cancer cells [2]; 8 pCi/cell) [%]
[In+3].[O-]c1cccc2cccnc12.[O-]c1cccc2cccnc12.[O-]c1cccc2cccnc12 [^111In-oxine, reference compound]	91	greater than 99%								
EGF-^111In-labeled transferrin compound: human EGF linked via PEG3400-biotin or peptide linker-biotin to streptavidin-transferrin, transferrin labeled with ^111In			rapidly internalized	2.7×10^6	rapidly bound	at least 24 hours	8e+08	< 8	83	99
